# Measured values published in article PMC5618421, “Anti-Inflammatory Effects of Curvularin-Type Metabolites from a Marine-Derived Fungal Strain Penicillium sp. SF-5859 in Lipopolysaccharide-Induced RAW264.7 Macrophages” (Marine Drugs, 2017).
# Experiments:
# Format in all cases: cell-based
# [1] = test system: PGE2 production in LPS-treated RAW 264.7 macrophages; assay: Inhibition of PGE2 production (PGE2 ELISA kit) in LPS-treated RAW264.7 macrophages; details: Mus musculus, RAW264.7 macrophages pre-treated 3 h with compound, then LPS (1 μg/mL) 24 h
# Method: (§1) All isolated compounds (1–9) were evaluated for their anti-inflammatory effects. […] NO is a small molecule which is an intracellular mediator produced in various immune cells. It plays a pivotal role in the physiological and pathological condition of inflammatory symptoms. PGE2 can also regulate the immune and inflammatory responses. In this study, RAW264.7 macrophages were pre-treated for 3 h in the medium containing non-toxic concentrations (Table 2) of each compound (1–9), and then LPS (1 μg/mL) was treated for 24 h. According to the LPS stimulation of RAW264.7 macrophages, production of NO and PGE2 was increased, and the effects of all compounds on the production level of NO and PGE2 were evaluated by the Griess reaction and a PGE2 kit, respectively. […] To evaluate the impact of phenol and resorcinol groups in the curvularin-type metabolites for the anti-inflammatory activity, 5-O-methyl and 5,7,-di-O-methyl derivatives of curvularin (3a and 3b, respectively), as well as 5-O-acetyl and 5,7,-di-O-acetyl derivatives of curvularin (3c and 3d, respectively), were prepared, and the structures of 3a–3d were identified by comparison the ^1H and ^13C-NMR spectroscopic data with those of curvularin (3), and confirmed by their HRESIMS. […] The position of the methoxy group in 3a was confirmed by HMBC correlation between methoxy signal at δH 3.77 (3H, s, 5-OCH3) and δC 161.8 (C-5). The NOESY cross-peaks between acetyl proton ([…]) with H-2, H-4, and H-16 of 3c were used to identify the position of the acetyl group in 3c. […] Further systematic investigations are needed to clarify the structure activity relationship associated with the modification of the aliphatic part of the molecule.
# RPMI1640, fetal bovine serum (FBS), and other tissue culture reagents were purchased from Gibco BRL Co. (Grand Island, NY, USA). All other chemicals were obtained from Sigma-Aldrich Co. (St. Louis, MO, USA). Primary antibodies (COX-2: sc-1745; iNOS: sc-650; IκB-α: sc-371; p-IκB-α: sc-8404; p50: sc-7178; p65: sc-8008, Santa Cruz Biotechnology, Dallas, TX, USA, p-ERK: #9101; ERK: #9102; p-JNK: #9251; JNK: #9252S; p-p38: #9211; p38: 9212S, Cell Signaling Technology, Danvers, MA, USA) and secondary antibodies (mouse: ap124p; goat: ap106p; rabbit: ap132p, Millipore, Billerica MA, USA). Enzyme-linked immunosorbent assay (ELISA) kits for PGE2 were purchased from R and D Systems, Inc. (Minneapolis, MN, USA).
# [2] = test system: NO production in LPS-treated RAW 264.7 macrophages; assay: Inhibition of NO production (nitrite, Griess reaction) in LPS-treated RAW264.7 macrophages; details: Mus musculus; RAW264.7 macrophages pre-treated 3 h with compound, then LPS (1 μg/mL) 24 h; Griess reaction
# Method: as §1
# As an indicator of NO production in RAW264.7 macrophages, production of nitrite, a stable end-product of NO oxidation, was estimated. Briefly, the concentration of nitrite in the conditioned media was determined by a method based on the Griess reaction, and the details of the assay were described previously.
# [3] = test system: iNOS; assay: Western blot of iNOS protein expression in LPS-stimulated RAW264.7 macrophages; details: pre-treated 3 h, LPS 24 h
# Source text: Therefore, we further tested whether inhibitory effects of 8 against NO and PGE2 productions are correlated with the protein expression of pro-inflammatory enzymes (i.e., iNOS and COX-2, respectively), which are known to catalyze the production of NO and PGEs in LPS-stimulated cells. […] Upon the stimulation by LPS, macrophages can also trigger the production of pro-inflammatory cytokines such as TNF-α, and ILs. The overproduction of these cytokines contributes to the pathogenesis of inflammatory diseases. Thus, we further evaluated the effects of 8 on the mRNA expression of pro-inflammatory cytokines in the LPS-induced cells. The cells were pre-treated with indicated concentration for 3 h, followed by LPS stimulation (1 μg/mL) for 6 h. The mRNA expression of pro-inflammatory cytokines was determined by RT-qPCR.
# Figure 2 Effects of 8 on protein expression levels of iNOS and COX-2 (a), and mRNA expression levels of IL-1β (Il1b) (b), IL-6 (Il6) (c), and TNF-α (Tnf) (d) in RAW264.7 macrophages. The cells were pre-treated for 3 h with the indicated concentrations of 8 and stimulated for 24 h (a), and 6 h (b–d) with LPS (1 μg/mL). The measurement of western blot analysis and RNA quantification for Il1b, Il6, and Tnf expression were performed as described in the Materials and Methods. […]
# The proteins of iNOS, COX-2, NF-κB, and MAPKs were measured by Western blot analysis. […]
smiles,measurement,setting,value
"C[C@H]1CCC/C=C/C(=O)c2c(O)cc(O)cc2CC(=O)O1 [Compound 8, (10E,15S)-10,11-dehydrocurvularin]",IC50,[1],2.7 ± 0.4 µM
same,IC50,[2],1.9 ± 0.3 µM
same,iNOS protein expression,[3],attenuation of the excessive protein expression of iNOS and COX-2 in a dose-dependent manner
